System: 521955-158-R2-J5-PDC complex spheroids, viability
Assay: Anticancer human tumor 521955-158-R2-J5-PDC patient-derived pancreatic carcinoma cell line growth inhibition [RAS]
Details: for IC50: curve of first compound; for viability, T/C: stronger effect = lower value
Summary of the method: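 Tumour cells grown as complex spheroids with HUVEC endothelial cells and mesenchymal stem cells, treated with RAS pathway inhibitor combinations. Each agent spans half-log steps from near clinical Cmax, or 10 microM where Cmax is unknown.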

[1] = second compound 0.000949 µM, first compound 0.0316 µM
[2] = second compound 0.000949 µM, first compound 0.1 µM
[3] = second compound 0.000949 µM, first compound 0.316 µM
[4] = second compound 0.000949 µM, first compound 1 µM
[5] = second compound 0.000949 µM, first compound 3.16 µM
[6] = second compound 0.000949 µM, first compound 10 µM
[7] = second compound 0.003 µM, first compound 0.0316 µM
[8] = second compound 0.003 µM, first compound 0.1 µM
[9] = second compound 0.003 µM, first compound 0.316 µM
[10] = second compound 0.003 µM, first compound 1 µM
[11] = second compound 0.003 µM, first compound 3.16 µM
[12] = second compound 0.003 µM, first compound 10 µM
[13] = second compound 0.00949 µM, first compound 0.0316 µM
[14] = second compound 0.00949 µM, first compound 0.1 µM
[15] = second compound 0.00949 µM, first compound 0.316 µM
[16] = second compound 0.00949 µM, first compound 1 µM
[17] = second compound 0.00949 µM, first compound 3.16 µM
[18] = second compound 0.00949 µM, first compound 10 µM
[19] = second compound 0.03 µM, first compound 0.0316 µM
[20] = second compound 0.03 µM, first compound 0.1 µM
[21] = second compound 0.03 µM, first compound 0.316 µM
[22] = second compound 0.03 µM, first compound 1 µM
[23] = second compound 0.03 µM, first compound 3.16 µM
[24] = second compound 0.03 µM, first compound 10 µM
[25] = second compound 0.0949 µM, first compound 0.0316 µM
[26] = second compound 0.0949 µM, first compound 0.1 µM
[27] = second compound 0.0949 µM, first compound 0.316 µM
[28] = second compound 0.0949 µM, first compound 1 µM
[29] = second compound 0.0949 µM, first compound 3.16 µM
[30] = second compound 0.0949 µM, first compound 10 µM
[31] = second compound 0.3 µM, first compound 0.0316 µM
[32] = second compound 0.3 µM, first compound 0.1 µM
[33] = second compound 0.3 µM, first compound 0.316 µM
[34] = second compound 0.3 µM, first compound 1 µM
[35] = second compound 0.3 µM, first compound 3.16 µM
[36] = second compound 0.3 µM, first compound 10 µM
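Note: compound exposure lasted seven days before the viability read.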
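Throughout, for viability, T/C: spheroids also contain HUVEC endothelial cells and mesenchymal stem cells as stroma.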

SMILES: CC(=O)OC12COC1CC(O)C1(C)C(=O)C(O)C3=C(C)C(OC(=O)C(O)C(NC(=O)OC(C)(C)C)c4ccccc4)CC(O)(C(OC(=O)c4ccccc4)C21)C3(C)C (centres undefined) + CCn1c(-c2cc(N3CCN(C)CC3)cnc2C(C)OC)c2c3cc(ccc31)-c1csc(n1)CC(NC(=O)C1CC1C)C(=O)N1CCCC(N1)C(=O)OCC(C)(C)C2
- IC50 (second compound 0.000949 µM): < 31.6 nM
- IC50 (second compound 0.003 µM): < 31.6 nM
- IC50 (second compound 0.00949 µM): < 31.6 nM
- IC50 (second compound 0.03 µM): < 31.6 nM
- IC50 (second compound 0.0949 µM): < 31.6 nM
- IC50 (second compound 0.3 µM): < 31.6 nM
- viability, T/C [1]: 19.7%
- viability, T/C [2]: 23.3%
- viability, T/C [3]: 20.3%
- viability, T/C [4]: 24.3%
- viability, T/C [5]: 29.3%
- viability, T/C [6]: 30.7%
- viability, T/C [7]: 25.7%
- viability, T/C [8]: 21.4%
- viability, T/C [9]: 23.5%
- viability, T/C [10]: 28.9%
- viability, T/C [11]: 23.7%
- viability, T/C [12]: 26.8%
- viability, T/C [13]: 20.8%
- viability, T/C [14]: 21.7%
- viability, T/C [15]: 20.4%
- viability, T/C [16]: 19.8%
- viability, T/C [17]: 18.9%
- viability, T/C [18]: 16.6%
- viability, T/C [19]: 12.9%
- viability, T/C [20]: 12.8%
- viability, T/C [21]: 11.8%
- viability, T/C [22]: 16.9%
- viability, T/C [23]: 12.7%
- viability, T/C [24]: 9.64%
- viability, T/C [25]: 7.98%
- viability, T/C [26]: 9.42%
- viability, T/C [27]: 11.9%
- viability, T/C [28]: 8.27%
- viability, T/C [29]: 12.1%
- viability, T/C [30]: 7.89%
- viability, T/C [31]: 7.22%
- viability, T/C [32]: 8.9%
- viability, T/C [33]: 7.91%
- viability, T/C [34]: 11.6%
- viability, T/C [35]: 10.6%
- viability, T/C [36]: 7.75%

SMILES: CCC(CC)c1cc(NC2CCC(N)C2)n2nccc2n1 (centres undefined) + CCn1c(-c2cc(N3CCN(C)CC3)cnc2C(C)OC)c2c3cc(ccc31)-c1csc(n1)CC(NC(=O)C1CC1C)C(=O)N1CCCC(N1)C(=O)OCC(C)(C)C2
- IC50 (second compound 0.000949 µM): < 31.6 nM
- IC50 (second compound 0.003 µM): 31.6 nM
- IC50 (second compound 0.00949 µM): < 31.6 nM
- IC50 (second compound 0.03 µM): < 31.6 nM
- IC50 (second compound 0.0949 µM): < 31.6 nM
- IC50 (second compound 0.3 µM): < 31.6 nM
- viability, T/C [1]: 39%
- viability, T/C [2]: 50.8%
- viability, T/C [3]: 56%
- viability, T/C [4]: 48.2%
- viability, T/C [5]: 11.8%
- viability, T/C [6]: 10.7%
- viability, T/C [7]: 47.5%
- viability, T/C [8]: 44.3%
- viability, T/C [9]: 50.6%
- viability, T/C [10]: 43%
- viability, T/C [11]: 6.49%
- viability, T/C [12]: 10.2%
- viability, T/C [13]: 34.5%
- viability, T/C [14]: 32.3%
- viability, T/C [15]: 43.7%
- viability, T/C [16]: 44.4%
- viability, T/C [17]: 9.61%
- viability, T/C [18]: 8.45%
- viability, T/C [19]: 23.9%
- viability, T/C [20]: 23.9%
- viability, T/C [21]: 24.4%
- viability, T/C [22]: 21.2%
- viability, T/C [23]: 7.51%
- viability, T/C [24]: 7.75%
- viability, T/C [25]: 12.3%
- viability, T/C [26]: 11.3%
- viability, T/C [27]: 17.4%
- viability, T/C [28]: 12.1%
- viability, T/C [29]: 9.07%
- viability, T/C [30]: 8.98%
- viability, T/C [31]: 10.9%
- viability, T/C [32]: 10.8%
- viability, T/C [33]: 11.7%
- viability, T/C [34]: 12.6%
- viability, T/C [35]: 10.9%
- viability, T/C [36]: 8.49%

Source: PubChem BioAssay AID2060900 (Molecular Pharmacology Branch, DTP, NCI, 2025)
